Measurements from patent US20070232615A1, “Chemical Compounds” (priority 2004, published 2007).

Columns and labels:
T-tropic HIV = settings: patients dual tropic or with only the T-tropic form of the virus; cited from earlier work
human CXCR4 = biological target: T1, human CXCR4 (Homo sapiens, UniProt P61073); experiment: Functional FLIPR assay (block of SDF-1 alpha induced [Ca2+]i change); format: cell-based; settings: HEK-293 cells with human CXCR4 and Gqi5 BacMam; antagonism of SDF-1 alpha; read-out: Functional assay (pIC50) (converted)
T1 construct: expressed in transfected cells; host or cells: HEK-293 cells (stably expressing human macrophage scavenger receptor class A type 1), transduced with human CXCR4 BacMam and Gqi5 BacMam baculoviruses
Method: Human embryonic kidney (HEK-293) cells were maintained and harvested as described above. Cells were plated in 96-well, black clear bottom, poly-lysine coated plates at a concentration of 40,000 cells per well in a final volume of 100 ul containing human CXCR4 BacMam (MOI=25) and Gqi5 BacMam (MOI=12.5). The cells were incubated at 37° C., 5% CO2, 95% humidity for 24 h to allow for protein expression.
After the required incubation time the cells were washed once with 50 ul of fresh serum-free DMEM/F12 media containing probenicid. 50 ul of dye solution was then added to the cells (Calcium Plus Assay Kit Dye; Molecular Devices) was dissolved in 200 ml of the above probenicid/BSA containing media and incubated for 1 h. Cell plates were transferred to a Fluorometric Imaging Plate Reader (FLIPR). Upon addition the effect of the compounds on the change in [Ca^2+]i was examined to determine if the compounds were agonists or antagonists (ability to block SDF-1 alpha activity) at the CXCR4 receptor. IC50 values are determined and pKb values are calculated using the Leff and Dougall equation: KB=IC50/((2+([agonist]/EC50ˆb)ˆ1/b−1) Where IC50 is that defined by the antagonist concentration-response curve [agonist] is the EC80 concentration of agonist used EC50 is that defined by the agonist concentration-response curve b is the slope of the agonist concentration-response curve.

[1] = system: HOS (hCXCR4/hCCR5/hCD4/pHIV-LTR-luciferase) cells and HEK-293 cells expressing HIV-1 gp160 (HXB2 strain); experiment: Cell/cell fusion assay (luciferase); format: cell-based; settings: Homo sapiens, HEK293; 24 h, luciferase readout; read-out: Fusion assay (pIC50) (converted)
Source text: The complete coding sequences of HIV-1 tat (GenBank Accession No. X07861) and rev (GenBank Accession No. M34378) were cloned into pcDNA3.1 expression vectors containing G418 and hygromycin resistance genes, respectively. The complete coding sequence of the HIV-1 (HXB2 strain) gp160 envelope gene (nucleotide bases 6225-8795 of GenBank Accession No. K03455) was cloned into plasmid pCRII-TOPO. The three HIV genes were additionally inserted into the baculovirus shuttle vector, pFastBacMam1, under the transcriptional control of the CMV promoter. A construction of the pHIV-I LTR containing mutated NFkB sequences linked to the luciferase reporter gene was prepared by digesting pcDNA3.1, containing the G418 resistance gene, with Nru I and Bam HI to remove the CMV promoter. LTR-luc was then cloned into the Nru I/Bam HI sites of the plasmid vector. Plasmid preparations were performed after the plasmids were amplified in Escherichia coli strain DH5-alpha. The fidelity of the inserted sequences was confirmed by double-strand nucleotide sequencing using an ABI Prism Model 377 automated sequencer.
BacMam Baculovirus Generation
Recombinant BacMam baculoviruses were constructed from pFastBacMam shuttle plasmids by using the bacterial cell-based Bac-to-Bac system. Viruses were propagated in Sf9 (Spodoptera frugiperda) cells cultured in Hink's TNM-FH Insect media supplemented with 10% (v/v) fetal bovine serum and 0.1% (v/v) pluronic F-68 according to established protocols.
Human osteosarcoma (HOS) cells that naturally express human CXCR4 were transfected with human CCR5, human CD4 and the pHIV-LTR-luciferase plasmid using FuGENE 6 transfection reagent. Single cells were isolated and grown under selection condition in order to generate a stable HOS (hCXCR4/hCCR5/hCD4/pHIV-LTR-luciferase) clonal cell line. The cells were maintained in Dulbeccos modified Eagles media supplemented with 10% fetal calf serum (FCS), G418 (400 ug/ml), puromycin (1 ug/ml), mycophenolic acid (40 ug/ml), xanthine (250 ug/ml) and hypoxanthine (13.5 ug/ml) to maintain a selection pressure for cells expressing the LTR-luciferase, hCCR5 and hCD4, respectively. Human embryonic kidney (HEK-293) cells stably transfected to express the human macrophage scavenging receptor (Class A, type 1; GenBank Accession No. D90187), were maintained in DMEM/F-12 media (1:1) supplemented with 10% FCS and 1.5 ug/ml puromycin. The expression of this receptor by the HEK-293 cells enhances their ability to stick to tissue culture treated plasticware.
Transduction of HEK-293 cells
HEK-293 cells were harvested using enzyme-free cell dissociation buffer. The cells were resuspended in DMEM/F-12 media supplemented with 10% FCS and 1.5 ug/ml and counted. Tranductions were performed by direct addition of BacMam baculovirus containing insect cell media to cells. The cells were simultaneously transduced with BacMam baculovirus expressing HIV-1 tat, HIV-1 rev and HIV-1 gp160 (from the HXB2 HIV strain). Routinely an MOI of 10 of each virus was added to the media containing the cells. 2 mM butyric acid was also added to the cells at this stage to increase protein expression in transduced cells. The cells were subsequently mixed and seeded into a flask at 30 million cells per T225. The cells were incubated at 37° C., 5% CO2, 95% humidity for 24 h to allow for protein expression.
Cell/Cell Fusion Assay Format
HEK and HOS cells were harvested in DMEM/F-12 media containing 2% FCS and DMEM media containing 2% FCS, respectively, with no selection agents added. Compounds were plated as 1 ul spots in 100% DMSO on a 96-well CulturPlate plates. HOS cells (50 ul) were added first to the wells, followed immediately by the HEK cells (50 ul). The final concentration of each cell type was 20,000 cells per well. Following these additions, the cells were returned to a tissue culture incubator (37° C.; 5% CO2/95% air) for an additional 24 h.
Measurement of Luciferase Production […]

[2] = Compound cytotoxicity in the absence of virus (CellTiter-Glo); format: cell-based; settings: human; HOS cells, no virus; read-out: Cytotox (pIC50) (converted)
Method: (§1) Compounds were profiled against two HIV-1 viruses, the M-tropic (CCR5 utilizing) Ba-L strain and the T-tropic (CXCR4 utilizing) IIIB strain. Both viruses were propagated in human peripheral blood lymphocytes. Compounds were tested for there ability to block infection of the HOS cell line (expressing hCXCR4/hCCR5/hCD4/pHIV-LTR-luciferase) by either HIV-1 Ba-L or HIV-1 IIIB. Compound cytotoxicity was also examined in the absence of virus addition.
(§2) HOS cells (expressing hCXCR4/hCCR5/hCD4/pHIV-LTR-luciferase) were harvested and diluted in Dulbeccos modified Eagles media supplemented with 2% FCS and non-essential amino acid to a concentration of 60,000 cells/ml. The cells were plated into 96-well plates (100 ul per well) and the plates were placed in a tissue culture incubator (37° C.; 5% CO2/95% air) for a period of 24 h.
(§3) Subsequently, 50 ul of the desired drug solution (4 times the final concentration) was added to each well and the plates were returned to the tissue culture incubator (37° C.; 5% CO2/95% air) for 1 h. Following this incubation 50 ul of diluted virus was added to each well (approximately 2 million RLU per well of virus). The plates were returned to the tissue culture incubator (37° C.; 5% CO2/95% air) and were incubated for a further 96 h.
(§4) Following this incubation the endpoint for the virally infected cultures was quantified following addition of Steady-Glo Luciferase assay system reagent (Promega, Madison, Wis.). Cell viability or non-infected cultures was measured using a CellTiter-Glo luminescent cell viability assay system (Promega, Madison, Wis.). All luminescent readouts are performed on a Topcount luminescence detector (Packard, Meridien, Conn.).

HIV-1 IIIB = experiment: HOS HIV-1 infectivity assay, IIIB strain; format: cell-based; settings: Human immunodeficiency virus 1; HOS cells, HIV-1 IIIB (T-tropic, CXCR4 utilizing), 96 h; read-out: HOS (3B)
Method: HOS HIV-1 Infectivity Assay
as §1
HOS HIV-1 Infectivity Assay Format
as §2, §3, §4

HIV = experiment: HOS HIV infectivity assay (Table 2, strain not given); format: cell-based; settings: Human immunodeficiency virus 1, read-out: Activity Level
Method in brief: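 HOS cells expressing hCXCR4/hCCR5/hCD4 and an HIV-LTR-luciferase reporter were preincubated with compound for 1 h in DMEM/2% FCS. They were then infected with HIV-1 Ba-L or IIIB (about 2 million RLU/well) for 96 h at 37° C. Infection was read by luciferase luminescence, and viability in uninfected cultures by CellTiter-Glo.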

T1 sequence (P61073 whole entry): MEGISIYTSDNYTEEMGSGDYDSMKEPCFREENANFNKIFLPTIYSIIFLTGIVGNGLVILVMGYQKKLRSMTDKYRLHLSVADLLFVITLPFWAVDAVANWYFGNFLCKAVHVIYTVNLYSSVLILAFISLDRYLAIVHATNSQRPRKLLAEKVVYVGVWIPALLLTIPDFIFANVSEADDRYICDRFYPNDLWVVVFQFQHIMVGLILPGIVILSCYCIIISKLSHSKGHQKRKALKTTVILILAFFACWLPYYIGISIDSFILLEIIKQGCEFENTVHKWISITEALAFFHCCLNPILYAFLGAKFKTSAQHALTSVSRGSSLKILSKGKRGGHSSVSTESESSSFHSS

| SMILES | T-tropic HIV viral load (T-tropic HIV) | IC50 (human CXCR4) | IC50 [1] | IC50 at 96 h [2] | IC50 (HIV-1 IIIB) | IC50 (HIV) |
| --- | --- | --- | --- | --- | --- | --- |
| c1cc(CN2CCCNCCNCCCNCC2)ccc1CN1CCCNCCNCCCNCC1 [AMD-3100] | significantly reduce T-tropic HIV viral load |  |  |  |  |  |
| CC(C)N1CCN(c2cccc3nc(CN(CC(F)(F)F)C4CCCc5cccnc54)cn23)CC1 (stereo not shown) [Example 17, N-({5-[4-(1-Methylethyl)-1-piperazinyl]imidazo[1,2-a]pyridin-2-yl}methyl)-N-(2,2,2-trifluoroethyl)-5,6,7,8-tetrahydro-8-quinolinamine] |  | 8.91 nM | 2140 nM | > 100 µM | 300 nM | 100 to 500 nM |
| CN(C)Cc1ccc(-c2cccc3nc(CN(C)C4CCCc5cccnc54)cn23)cc1 (stereo not shown) [Example 18, N-[(5-{4-[(Dimethylamino)methyl]phenyl}imidazo[1,2-a]pyridin-2-yl)methyl]-N-methyl-5,6,7,8-tetrahydro-8-quinolinamine] |  | 38.9 nM | 148 nM | > 100 µM | 65 nM | < 100 nM |
| CN(Cc1cn2c(-c3ccncc3)cccc2n1)C1CCCc2cccnc21 (stereo not shown) [Example 19, N-Methyl-N-{[5-(4-pyridinyl)imidazo[1,2-a]pyridin-2-yl]methyl}-5,6,7,8-tetrahydro-8-quinolinamine] |  | 20.4 nM | 3160 nM | > 100 µM | 280 nM | 100 to 500 nM |
